Source: US20220175723A1, “METHODS AND COMPOSITIONS RELATING TO INHIBITION OF ALDEHYDE DEHYDROGENASES FOR TREATMENT OF CANCER” (THE PENN STATE RESEARCH FOUNDATION, priority 2019, published 2022)
Read-outs that look alike come from different tables or passages of the source.

How the values were obtained:
[1] = biological target: T1, ALDH1A1 (Homo sapiens, UniProt P00352); assay: ALDH isoform-specific enzyme assay (NADH absorbance 340 nm); assay type: biochemical; conditions: Study 1; read-out: IC50s ALDH1A1
T1 construct: purchased R & D Systems, Inc, Minneapolis, Minn., USA
T1 sequence (P00352 1-501): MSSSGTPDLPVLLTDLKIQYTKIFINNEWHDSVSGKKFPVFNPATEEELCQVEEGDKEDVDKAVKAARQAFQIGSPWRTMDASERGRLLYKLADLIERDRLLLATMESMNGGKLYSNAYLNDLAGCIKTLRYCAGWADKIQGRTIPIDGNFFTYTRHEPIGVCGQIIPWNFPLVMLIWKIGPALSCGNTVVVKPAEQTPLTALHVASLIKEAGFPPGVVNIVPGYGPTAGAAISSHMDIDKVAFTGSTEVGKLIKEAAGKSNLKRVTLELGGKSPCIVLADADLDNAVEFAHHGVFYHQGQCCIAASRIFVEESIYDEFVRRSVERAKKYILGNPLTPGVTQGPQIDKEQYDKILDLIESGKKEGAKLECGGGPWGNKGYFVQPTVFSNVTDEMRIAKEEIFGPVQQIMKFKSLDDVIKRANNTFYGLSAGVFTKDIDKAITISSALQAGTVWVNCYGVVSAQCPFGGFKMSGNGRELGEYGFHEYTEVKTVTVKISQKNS
Protocol: (§4) ALDH enzyme assays were performed using a kit as described by the kit manufacturer (R & D Systems, Inc, Minneapolis, Minn., USA). Isoform-specific aldehydes were converted to their respective carboxylic acids along with conversion of NAD+ to NADH (absorbance at 340 nm). […] Similarly, 0.5 μg/mL of ALDH2 was used in the reaction with 2 mM of acetaldehyde as the substrate and 0.2 μg/mL of ALDH3A1 was used in the reaction with 1 mM of 4-nitrobenzaldehyde (4-NBA) as the substrate following addition of ALDH inhibitors.
(§5) ALDH1A1, 2 and 3A1 enzyme assays were performed as described by the manufacturer (R & D systems). Isoform-specific aldehydes were converted to their respective carboxylic acids along with the conversion of NAD+ to NADH (absorbance at 340 nm).

[2] = biological target: T2, ALDH2 (Homo sapiens, UniProt P05091); assay: as above; assay type: biochemical; conditions: Study 1; read-out: IC50s ALDH2
T2 construct: purchased R & D Systems, Inc, Minneapolis, Minn., USA
T2 sequence (P05091 18-517): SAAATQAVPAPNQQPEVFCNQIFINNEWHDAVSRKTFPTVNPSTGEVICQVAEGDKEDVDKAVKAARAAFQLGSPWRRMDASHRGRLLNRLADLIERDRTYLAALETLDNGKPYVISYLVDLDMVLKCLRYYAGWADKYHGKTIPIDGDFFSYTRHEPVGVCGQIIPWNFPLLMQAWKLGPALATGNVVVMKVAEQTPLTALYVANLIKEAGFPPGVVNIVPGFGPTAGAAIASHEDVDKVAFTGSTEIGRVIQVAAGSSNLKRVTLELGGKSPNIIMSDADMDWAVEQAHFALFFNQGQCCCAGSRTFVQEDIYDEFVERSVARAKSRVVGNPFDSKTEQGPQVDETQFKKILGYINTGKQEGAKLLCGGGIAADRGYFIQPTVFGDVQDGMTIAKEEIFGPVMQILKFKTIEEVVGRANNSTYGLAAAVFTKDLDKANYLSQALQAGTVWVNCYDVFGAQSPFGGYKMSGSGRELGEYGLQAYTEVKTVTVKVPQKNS
Protocol: as §4, §5

[3] = tested on: total cellular ALDH activity, 1205 Lu cell lysates; assay: Total cellular ALDH activity in cell lysates; assay type: biochemical, human; conditions: 1 uM inhibitor, 15 minutes
From the text: (§1) The ALDHs reduce ROS, lipid peroxidation and toxic aldehyde accumulation, the latter of which can lead to cell damage and apoptosis as shown in FIG. 6A. Thus, inhibition of total cellular ALDH activity can increase toxic aldehydes, oxidative damage and apoptosis.

[4] = tested on: total cellular ALDH activity, UACC 903 cell lysates; assay: Total cellular ALDH activity in cell lysates; assay type: biochemical, human; conditions: 1 uM inhibitor, 15 minutes
From the text: as §1

[5] = tested on: HCT116 and HT29 cells; assay: ROS assay (DCFDA), Study 2, with or without NAC; assay type: cell-based, human
Protocol: ROS activity was measured using DCFDA dye^51. […] Cells were incubated with 10 μM of DCFDA for 1 hour, and fluorescence was measured at 485 nm excitation and 510 nm emission. ROS levels in treated cells were compared to DMSO control.

[6] = tested on: HCT116 cells; assay: Cell cycle by propidium iodide staining with or without NAC; assay type: cell-based, human
Protocol: (§2) FIGS. 30A-30F. […] ROS levels were measured using DCFDA dye and compared to DMSO control. Malondialdehyde (MDA) levels were measured in colon cancer cell line HCT116 using thiobarbituric acid and compared to DMSO control (FIG. 30C). Cell survival assay was performed by MTS assay (FIG. 30D), apoptosis by Annexin-V/7-AAD (FIG. 30E) and cell cycle by propidium iodide staining in colon cancer cell line HCT116 (FIG. 30F).
(§3) Further, the effect of the addition of NAC on the antiproliferative and apoptotic activity of ALDH inhibitors was also evaluated.

[7] = Toxicity study, 14 days i.p.; assay type: in vivo, Swiss-Webster mice; conditions: 5 mg/kg/day i.p. for 14 days, vs DMSO
Protocol: To determine the toxicity of 3(h-l), compounds were injected i.p. into Swiss-Webster mice once daily for 14 days (Id.). Animals were monitored for changes in body weight, behavior and physical distress compared to DMSO control.

[8] = tested on: HCT116 cells; assay: Apoptosis by Annexin-V/7-AAD with or without NAC; assay type: cell-based, human; parameters: dose or concentration left out as unconfirmed; conditions: vs DMSO or 3a
Protocol: as §2, §3

[9] = tested on: HCT116 cells; assay: Cell survival MTS assay with or without NAC; assay type: cell-based, human
Protocol: as §2, §3

[10] = tested on: UACC 903 cells; assay: Cell viability MTS assay, UACC 903; assay type: cell-based, human; conditions: 100 μM, 72 hours
Protocol: Cell viability assays of UACC 903 cells transfected with siRNA, and melanoma cell lines (UACC 903, 1205 Lu, C8161.CI9, MelJuSo), FF2441 and NHEM cells treated with ALDH inhibitors were performed. For this, 5,000 cells per well were plated in a 96-well plate and incubated overnight at 37° C. in a 5% CO2 atmosphere. For the siRNA knockdown experiment, cells were incubated for another 72 hours. For the ALDH inhibitor experiments, cells were treated with agents at various concentrations and incubated for 72 hours. 20 μL of MTS reagent was then added into each well and formation of tetrazolium was measured by absorbance after 1 hour at 492 nm. IC50 values or % cells for each experimental group were measured in three independent experiments using GraphPad Prism version 7.04 (GraphPad Software, La Jolla, Calif.).
Briefly, 3,000 cells per well were plated in a 96-well plate and incubated overnight at 37° C. in a 5% CO2 atmosphere. […] 20 μL of MTS reagent was then added into each well and formation of tetrazolium was measured by absorbance after 1 hour at 492 nm. IC50 values for each experimental group were measured in 3 independent experiments using GraphPad Prism version 7.04 (GraphPad Software, La Jolla, Calif.).

[11] = biological target: T3, ALDH3A1 (Homo sapiens, UniProt P30838); assay: ALDH isoform-specific enzyme assay (NADH absorbance 340 nm); assay type: biochemical
T3 construct: purchased R & D Systems, Inc, Minneapolis, Minn., USA
T3 sequence (P30838 1-453): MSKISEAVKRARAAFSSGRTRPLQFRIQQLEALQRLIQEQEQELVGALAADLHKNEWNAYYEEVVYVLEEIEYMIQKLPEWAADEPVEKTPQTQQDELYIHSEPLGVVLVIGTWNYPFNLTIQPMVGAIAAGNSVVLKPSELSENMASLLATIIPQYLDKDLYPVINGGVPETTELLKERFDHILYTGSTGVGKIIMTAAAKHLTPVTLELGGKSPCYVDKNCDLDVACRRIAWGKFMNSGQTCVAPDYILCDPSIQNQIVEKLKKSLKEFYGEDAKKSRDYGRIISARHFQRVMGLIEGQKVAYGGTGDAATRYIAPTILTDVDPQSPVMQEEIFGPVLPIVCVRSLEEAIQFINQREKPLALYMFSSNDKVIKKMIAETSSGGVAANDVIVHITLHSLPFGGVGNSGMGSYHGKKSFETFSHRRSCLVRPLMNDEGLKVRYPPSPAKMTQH
Protocol: as §4, §5

[12] = Study 1, read-out: IC50s ALDH3A1

SMILES	IC50 [1] [µM]	IC50 [2] [µM]	reduction of total cellular ALDH activity, 1205 Lu [3]	reduction of total cellular ALDH activity, UACC 903 [4]	IC50 [11, 12] [µM]	other results
Cc1nc2ccccc2n1S(=O)(=O)c1ccc(F)cc1 [CB7]	139	144	–	–	–	–
CCOC(=O)CSc1nc2c(sc3ccccc32)c(=O)n1CCCN1CCCC1 [CM037]	–	–	significantly reduced	significantly reduced	–	–
Br.N=C(N)SCc1ccc(CN2C(=O)C(=O)c3cc(C(F)(F)F)ccc32)cc1 [Compound 3h, 2-[4-(2,3-Dioxo-5-trifluoromethyl-2,3-dihydroindol-1-ylmethyl)benzyl]isothiourea hydrobromide]	–	–	–	–	–	ROS levels ([5]; 5 μM, 24 hours, vs DMSO): significantly increased; ROS-inducing activity on addition of NAC ([5]; with N-Acetyl Cysteine (NAC)): abrogated; cell cycle effect ([6]; HCT116): G2/M arrest; cell cycle effect on addition of NAC ([6]; HCT116, with NAC): reversed; weight loss [7]: no significant weight loss; percentage of cells both Annexin-V and 7-AAD positive [8]: significantly higher; increase of cell killing IC50 by addition of NAC [9]: 6 fold
CCN(CC)c1ccc(C=O)cc1 [DEAB]	–	–	significantly reduced	significantly reduced	15.1	reduction of UACC 903 cell survival [10]: 30%; IC50 ([11]; Study 1, text, read-out: IC50 ALDH3A1): 15.1 µM
O=C1Nc2ccccc2C1=O [Isatin]	15.6	169	ineffective	ineffective	5.05	–
